From PubChem BioAssay (NCI)
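In this assay, cells in 96-well plates receive the compound at five concentrations for 48 hours. Endpoints are linearly interpolated between the surrounding concentrations. GI50 is the concentration that inhibits growth by half. Definition used: TGI = concentration required for complete inhibition of growth.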

Columns and labels:
Assay in all cases: NCI anticancer screen, dose series, 48 h
SF-268 CNS = system: SF-268 CNS
HL-60(TB) leukemia = system: HL-60(TB) leukemia
HS 578T breast = system: HS 578T breast
SNB-19 CNS = system: SNB-19 CNS
HCT-116 colon = system: HCT-116 colon
M14 melanoma = system: M14 melanoma
SF-539 CNS = system: SF-539 CNS
EKVX NSCLC = system: EKVX NSCLC
MDA-MB-231 breast = system: MDA-MB-231 breast
BT-549 breast = system: BT-549 breast
SNB-75 CNS = system: SNB-75 CNS
COLO 205 colon = system: COLO 205 colon
SR leukemia = system: SR leukemia
HT29 colon = system: HT29 colon
U251 CNS = system: U251 CNS
SK-MEL-5 melanoma = system: SK-MEL-5 melanoma
NCI-H226 lung = system: NCI-H226 lung
LOX IMVI melanoma = system: LOX IMVI melanoma
DU-145 prostate = system: DU-145 prostate
OVCAR-8 ovarian = system: OVCAR-8 ovarian
MCF7 breast = system: MCF7 breast
MDA-MB-435 = system: MDA-MB-435
A549 NSCLC = system: A549 NSCLC
SK-MEL-2 melanoma = system: SK-MEL-2 melanoma
ACHN renal = system: ACHN renal
MOLT-4 leukemia = system: MOLT-4 leukemia
NCI-H23 lung = system: NCI-H23 lung
CAKI-1 renal = system: CAKI-1 renal
A498 renal = system: A498 renal
KM12 colon = system: KM12 colon
T-47D breast = system: T-47D breast
IGROV1 ovarian = system: IGROV1 ovarian
NCI-H522 lung = system: NCI-H522 lung
SK-OV-3 ovarian = system: SK-OV-3 ovarian
HCT-15 colon = system: HCT-15 colon
SW-620 colon = system: SW-620 colon
TK-10 renal = system: TK-10 renal
CCRF-CEM leukemia = system: CCRF-CEM leukemia
UACC-257 melanoma = system: UACC-257 melanoma
SK-MEL-28 melanoma = system: SK-MEL-28 melanoma
OVCAR-4 ovarian = system: OVCAR-4 ovarian
OVCAR-3 ovarian = system: OVCAR-3 ovarian
SN12C renal = system: SN12C renal
NCI/ADR-RES ovarian = system: NCI/ADR-RES ovarian
HOP-62 NSCLC = system: HOP-62 NSCLC
RXF 393 renal = system: RXF 393 renal
K-562 leukemia = system: K-562 leukemia
UO-31 renal = system: UO-31 renal
SF-295 CNS = system: SF-295 CNS
NCI-H460 lung = system: NCI-H460 lung
MALME-3M melanoma = system: MALME-3M melanoma
786-0 renal = system: 786-0 renal
HOP-92 NSCLC = system: HOP-92 NSCLC
OVCAR-5 ovarian = system: OVCAR-5 ovarian
UACC-62 melanoma = system: UACC-62 melanoma
PC-3 prostate = system: PC-3 prostate
RPMI-8226 leukemia = system: RPMI-8226 leukemia
HCC-2998 colon = system: HCC-2998 colon

CN(C)C/C=C/C(=O)Nc1cc2c(Nc3cccc(Cl)c3F)ncnc2cc1OCCOC(F)F
GI50 (SF-268 CNS): 1.44 µM
TGI (SF-268 CNS): 9.76 µM
GI50 (HL-60(TB) leukemia): 1.71 µM
TGI (HL-60(TB) leukemia): 7.23 µM
GI50 (HS 578T breast): 1.46 µM
TGI (HS 578T breast): 7.02 µM
GI50 (SNB-19 CNS): 1.97 µM
TGI (SNB-19 CNS): 13.3 µM
GI50 (HCT-116 colon): 1.87 µM
TGI (HCT-116 colon): 11 µM
GI50 (M14 melanoma): 3.08 µM
TGI (M14 melanoma): 14.3 µM
GI50 (SF-539 CNS): 1.5 µM
TGI (SF-539 CNS): 5.59 µM
TGI (EKVX NSCLC): 6.1 µM
GI50 (MDA-MB-231 breast): 1.09 µM
TGI (MDA-MB-231 breast): 7.78 µM
GI50 (BT-549 breast): 2.02 µM
TGI (BT-549 breast): 9.57 µM
GI50 (SNB-75 CNS): 0.494 µM
TGI (SNB-75 CNS): 3.79 µM
GI50 (COLO 205 colon): 1.69 µM
TGI (COLO 205 colon): 6.35 µM
GI50 (SR leukemia): 1.18 µM
TGI (SR leukemia): 5.22 µM
GI50 (HT29 colon): 1.31 µM
TGI (HT29 colon): 10.6 µM
GI50 (U251 CNS): 2.39 µM
TGI (U251 CNS): 12.1 µM
GI50 (SK-MEL-5 melanoma): 2.46 µM
TGI (SK-MEL-5 melanoma): 7.87 µM
GI50 (NCI-H226 lung): 1.68 µM
TGI (NCI-H226 lung): 7.28 µM
GI50 (LOX IMVI melanoma): 1.62 µM
TGI (LOX IMVI melanoma): 7.09 µM
GI50 (DU-145 prostate): 0.317 µM
TGI (DU-145 prostate): 10.7 µM
GI50 (OVCAR-8 ovarian): 1.11 µM
TGI (OVCAR-8 ovarian): 12.4 µM
GI50 (MCF7 breast): 1.49 µM
TGI (MCF7 breast): 12 µM
GI50 (MDA-MB-435): 2.22 µM
TGI (MDA-MB-435): 11.2 µM
GI50 (A549 NSCLC): 1.24 µM
TGI (A549 NSCLC): 12.7 µM
GI50 (SK-MEL-2 melanoma): 1.94 µM
TGI (SK-MEL-2 melanoma): 6.27 µM
GI50 (ACHN renal): < 0.01 µM
TGI (ACHN renal): 10.7 µM
GI50 (MOLT-4 leukemia): 1.42 µM
TGI (MOLT-4 leukemia): 6.18 µM
GI50 (NCI-H23 lung): 2.07 µM
TGI (NCI-H23 lung): 10.2 µM
GI50 (CAKI-1 renal): < 0.01 µM
TGI (CAKI-1 renal): 1.65 µM
GI50 (A498 renal): 0.423 µM
TGI (A498 renal): 2.22 µM
GI50 (KM12 colon): 3.11 µM
TGI (KM12 colon): 13.5 µM
GI50 (T-47D breast): 0.0376 µM
TGI (T-47D breast): 1.11 µM
GI50 (IGROV1 ovarian): < 0.0142 µM
TGI (IGROV1 ovarian): 1.07 µM
GI50 (NCI-H522 lung): 0.0289 µM
TGI (NCI-H522 lung): 2.04 µM
GI50 (SK-OV-3 ovarian): < 0.01 µM
TGI (SK-OV-3 ovarian): 0.275 µM
GI50 (HCT-15 colon): 1.08 µM
GI50 (SW-620 colon): 2.05 µM
TGI (SW-620 colon): 11.6 µM
GI50 (TK-10 renal): < 0.01 µM
TGI (TK-10 renal): 1.3 µM
GI50 (CCRF-CEM leukemia): 2.83 µM
TGI (CCRF-CEM leukemia): 15.7 µM
GI50 (UACC-257 melanoma): 3.59 µM
TGI (UACC-257 melanoma): 15.5 µM
GI50 (SK-MEL-28 melanoma): 3.11 µM
TGI (SK-MEL-28 melanoma): 15.3 µM
GI50 (OVCAR-4 ovarian): 1.5 µM
TGI (OVCAR-4 ovarian): 11.6 µM
GI50 (OVCAR-3 ovarian): 0.343 µM
TGI (OVCAR-3 ovarian): 4 µM
GI50 (SN12C renal): 0.317 µM
TGI (SN12C renal): 7.15 µM
GI50 (NCI/ADR-RES ovarian): 0.771 µM
TGI (NCI/ADR-RES ovarian): 7.74 µM
GI50 (HOP-62 NSCLC): 1.99 µM
TGI (HOP-62 NSCLC): 11.5 µM
GI50 (RXF 393 renal): 0.566 µM
TGI (RXF 393 renal): 2.71 µM
GI50 (K-562 leukemia): 0.939 µM
TGI (K-562 leukemia): 11.6 µM
GI50 (UO-31 renal): < 0.0187 µM
TGI (UO-31 renal): 6.14 µM
GI50 (SF-295 CNS): 2.82 µM
TGI (SF-295 CNS): 15.6 µM
GI50 (NCI-H460 lung): 2.82 µM
TGI (NCI-H460 lung): 13.5 µM
GI50 (MALME-3M melanoma): 1.64 µM
TGI (MALME-3M melanoma): 6.47 µM
GI50 (786-0 renal): 0.695 µM
TGI (786-0 renal): 9.77 µM
GI50 (HOP-92 NSCLC): 0.205 µM
TGI (HOP-92 NSCLC): 2.05 µM
GI50 (OVCAR-5 ovarian): 0.371 µM
TGI (OVCAR-5 ovarian): 15.1 µM
GI50 (UACC-62 melanoma): 1.86 µM
TGI (UACC-62 melanoma): 11.1 µM
GI50 (PC-3 prostate): 2.38 µM
TGI (PC-3 prostate): 13.6 µM
GI50 (RPMI-8226 leukemia): 1.53 µM
TGI (RPMI-8226 leukemia): 5.27 µM
GI50 (HCC-2998 colon): 2.1 µM
TGI (HCC-2998 colon): 10.9 µM
